System: 624824-186-R-J3-PDC multicell spheroids, viability
Test: Anticancer human tumor 624824-186-R-J3-PDC patient-derived colon adenocarcinoma cell line growth inhibition [PI3K]
Conditions: for IC50: curve of first compound; for viability, T/C: stronger effect = lower value; active means viability on the fitted dose curve at most 10% of control; inactive means the rest
From the text: Combinatorial screen of targeted agents with the PI3K inhibitors inavolisib, alpelisib, duvelisib, and copanlisib in multi-cell type tumor spheroids
A high-throughput screen of multi-cell type tumor spheroids was designed to identify active combinations of targeted small molecules and PI3K pathway inhibitors. Complex spheroids include a stromal component modeled by human endothelial cells (HUVEC) and fibroblasts modeled by human mesenchymal stem cells (MSCs). The concentration ranges selected for each drug and investigational agent were based upon clinically achievable concentrations if the clinical Cmax of the agent was known.
Compounds. The drugs and investigational agents: inavolisib (NSC800729), alpelisib (NSC765974), duvelisib (NSC772469), copanlisib (NSC816437), ipatasertib (NSC767898), afuresertib (NSC778305), talazoparib (NSC767125), sapanisertib (NSC764658), selumetinib (NSC741078), tovorafenib (DAY101, NSC766906), vemurafenib (NSC761431), ravoxertinib (NSC781343), sotorasib (NSC818433), MRTX1133 (NSC 836407), abemaciclib (NSC 768073), palbociclib (NSC758247), venetoclax (NSC 766270), SY5609 (NSC837396), enzalutamide (NSC755605), and darolutamide (NSC825331), were obtained from the National Cancer Institute (NCI) Developmental Therapeutics Program Chemical Repository. The FDA-approved anticancer drug set is available from the NCI Developmental Therapeutics Program. […] The stock solutions were prepared in dimethyl sulfoxide (DMSO, Sigma-Aldrich, St. Louis, MO, cat. D2650) at 800-fold the tested concentration and stored at -70 degrees C prior to their use. All drugs and investigational agents were tested over a range starting from a high concentration at or near the clinical Cmax and decreasing in half-log increments. If the clinical Cmax for an agent had not been determined, the highest concentration tested was 10 microM.
Cell Culture. All cells were maintained in an incubator at 37 degrees C and 5% CO2 with 95% humidity. The PDC lines were cultured according to standard operating procedures established by the NCI PDMR (https://pdmr.cancer.gov/sops/default.htm). All PDCs were thawed and cultured in Matrigel-coated flasks prepared with a working solution of 1X Ham's F-12 nutrient mix, without supplementation (Invitrogen, Waltham, MA, cat. 11765054), 100 U/mL penicillin-streptomycin (Invitrogen, cat. 15140122), and 2.5% Matrigel (Corning Inc., Corning, NY, cat. 354248) for the first three passages. The 354836-022-R-J1-PDC, 475296-252-R-J1-PDC, and 997726-040-R-J2-PDC lines were cultured in 6A media, which includes advanced DMEM/F-12 (Thermo Fisher Scientific, cat. 12634028), 10 mM HEPES (Thermo Fisher Scientific, cat. 15630080), 1X GlutaMAX supplement (Thermo Fisher Scientific, cat. 35050061), 0.1 mg/mL primocin (InvivoGen, San Diego, CA, cat. ant-pm-2), 10% defined fetal bovine serum, heat inactivated (HyClone Laboratories Inc., Logan, UT, cat. SH30070.03HI), 50% L-WRN conditioned media (ATCC, cat. CRL-3276), 1.25 mM N-Acetyl-L-cysteine (Sigma-Aldrich, cat. A9165), 10 mM nicotinamide (Sigma-Aldrich, cat. N0636), 1X B-27 supplement (Thermo Fisher Scientific, cat. 17504044), 1X N-2 supplement (Thermo Fisher Scientific, cat. 17502048), and 10 microM Y-27632 dihydrochloride (Tocris Bioscience, Bristol, United Kingdom, cat. 1254). The 624824-186-R-J2-PDC line was cultured in 6C/Colon 1B media, which includes all 6A media components plus 50 ng/mL human EGF recombinant protein (Thermo Fisher Scientific, cat. PHG0311). […]

[1] = second compound 0.0316 µM, first compound 0.0316 µM
[2] = second compound 0.0316 µM, first compound 0.1 µM
[3] = second compound 0.0316 µM, first compound 0.316 µM
[4] = second compound 0.0316 µM, first compound 1 µM
[5] = second compound 0.0316 µM, first compound 3.16 µM
[6] = second compound 0.0316 µM, first compound 10 µM
[7] = second compound 0.1 µM, first compound 0.0316 µM
[8] = second compound 0.1 µM, first compound 0.1 µM
[9] = second compound 0.1 µM, first compound 0.316 µM
[10] = second compound 0.1 µM, first compound 1 µM
[11] = second compound 0.1 µM, first compound 3.16 µM
[12] = second compound 0.1 µM, first compound 10 µM
[13] = second compound 0.316 µM, first compound 0.0316 µM
[14] = second compound 0.316 µM, first compound 0.1 µM
[15] = second compound 0.316 µM, first compound 0.316 µM
[16] = second compound 0.316 µM, first compound 1 µM
[17] = second compound 0.316 µM, first compound 3.16 µM
[18] = second compound 0.316 µM, first compound 10 µM
[19] = second compound 1 µM, first compound 0.0316 µM
[20] = second compound 1 µM, first compound 0.1 µM
[21] = second compound 1 µM, first compound 0.316 µM
[22] = second compound 1 µM, first compound 1 µM
[23] = second compound 1 µM, first compound 3.16 µM
[24] = second compound 1 µM, first compound 10 µM
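Further: spheroids exposed to agents for seven days before luminescence read.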
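Wherever viability, T/C is given: luminescent signal used as a stand-in for spheroid viability; percent viability relative to DMSO vehicle control wells taken as 100%.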

C#Cc1c(F)ccc2cc(O)cc(-c3ncc4c(N5CC6CCC(C5)N6)nc(OCC56CCCN5CC(F)C6)nc4c3F)c12 (centres undefined) + Cc1nc(NC(=O)N2CCCC2C(N)=O)sc1-c1ccnc(C(C)(C)C(F)(F)F)c1
inactive: viability, T/C [1] 108% | viability, T/C [2] 97% | viability, T/C [3] 121% | viability, T/C [4] 102% | viability, T/C [5] 108% | viability, T/C [6] 100% | viability, T/C [7] 111% | viability, T/C [8] 98.2% | viability, T/C [9] 94.9% | viability, T/C [10] 103% | viability, T/C [11] 116% | viability, T/C [12] 102% | viability, T/C [13] 103% | viability, T/C [14] 102% | viability, T/C [15] 108% | viability, T/C [16] 101% | viability, T/C [17] 112% | viability, T/C [18] 108% | viability, T/C [19] 100% | viability, T/C [20] 97.4% | viability, T/C [21] 114% | viability, T/C [22] 100% | viability, T/C [23] 112% | viability, T/C [24] 107% | viability, T/C (second compound 3.16 µM, first compound 0.0316 µM) 88.9% | viability, T/C (second compound 3.16 µM, first compound 0.1 µM) 88.2% | viability, T/C (second compound 3.16 µM, first compound 0.316 µM) 83% | viability, T/C (second compound 3.16 µM, first compound 1 µM) 85.2% | viability, T/C (second compound 3.16 µM, first compound 3.16 µM) 98.2% | viability, T/C (second compound 3.16 µM, first compound 10 µM) 80.4% | viability, T/C (second compound 10 µM, first compound 0.0316 µM) 71.4% | viability, T/C (second compound 10 µM, first compound 0.1 µM) 70.9% | viability, T/C (second compound 10 µM, first compound 0.316 µM) 68.9% | viability, T/C (second compound 10 µM, first compound 1 µM) 64.6% | viability, T/C (second compound 10 µM, first compound 3.16 µM) 58.8% | viability, T/C (second compound 10 µM, first compound 10 µM) 54.3%
> 10 µM: IC50 (second compound 0.0316 µM) | IC50 (second compound 0.1 µM) | IC50 (second compound 0.316 µM) | IC50 (second compound 1 µM) | IC50 (second compound 3.16 µM) | IC50 (second compound 10 µM)

CC1(C)CCC(Nc2ncc(C(F)(F)F)c(-c3c[nH]c4c(P(C)(C)=O)c(C#N)ccc34)n2)CN1 (centres undefined) + CC(Nc1ccc2c(c1)OCCn1cc(N3C(=O)OCC3C(F)F)nc1-2)C(N)=O
active: viability, T/C (second compound 0.00316 µM, first compound 10 µM) 2.71% | viability, T/C (second compound 0.01 µM, first compound 10 µM) 3.61% | viability, T/C [6] 3.03% | viability, T/C [12] 2.82% | viability, T/C [18] 2.32% | viability, T/C [24] 2.4%
4.79 µM: IC50 (second compound 0.1 µM)
inactive: viability, T/C (second compound 0.00316 µM, first compound 0.0316 µM) 106% | viability, T/C (second compound 0.00316 µM, first compound 0.1 µM) 90.5% | viability, T/C (second compound 0.00316 µM, first compound 0.316 µM) 89.4% | viability, T/C (second compound 0.00316 µM, first compound 1 µM) 89.6% | viability, T/C (second compound 0.00316 µM, first compound 3.16 µM) 85.5% | viability, T/C (second compound 0.01 µM, first compound 0.0316 µM) 104% | viability, T/C (second compound 0.01 µM, first compound 0.1 µM) 95.6% | viability, T/C (second compound 0.01 µM, first compound 0.316 µM) 92.7% | viability, T/C (second compound 0.01 µM, first compound 1 µM) 96.3% | viability, T/C (second compound 0.01 µM, first compound 3.16 µM) 84.2% | viability, T/C [1] 99.4% | viability, T/C [2] 88.7% | viability, T/C [3] 89.4% | viability, T/C [4] 93.5% | viability, T/C [5] 87.8% | viability, T/C [7] 90% | viability, T/C [8] 85.5% | viability, T/C [9] 89.8% | viability, T/C [10] 85.7% | viability, T/C [11] 76.5% | viability, T/C [13] 81.8% | viability, T/C [14] 64.8% | viability, T/C [15] 68.2% | viability, T/C [16] 76.5% | viability, T/C [17] 71.8% | viability, T/C [19] 54.9% | viability, T/C [20] 56.1% | viability, T/C [21] 57% | viability, T/C [22] 53.4% | viability, T/C [23] 50.5%
3.18 µM: IC50 (second compound 1 µM)
5.16 µM: IC50 (second compound 0.01 µM)
4.54 µM: IC50 (second compound 0.316 µM)
5.28 µM: IC50 (second compound 0.0316 µM)
5.18 µM: IC50 (second compound 0.00316 µM)

From PubChem BioAssay AID1963977 (Molecular Pharmacology Branch, DTP, NCI, 2024)
